Source: patent publication US12281122B1, “PI3K inhibitors” (Cogent Biosciences, Inc., priority 2023, dated 2025)

What was measured:
[1] = tested on: T47D (PI3Kα-H1047R) cell line; assay: HTRF phospho-AKT(S473) cell assay in T47D cells; format: cell-based, human; settings: Homo sapiens; T47D (PI3Kα-H1047R) cells, HTRF phospho-AKT(S473), 2 hours compound incubation
Procedure, shortened: (§1)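 HTRF read-out of phospho-AKT(S473) in lysates gave IC50 values after 2 h compound exposure at 37° C. Dose series was 12 points at 1:3, topping at 5 μM for T47D and 10 μM for SKBR3. Only SKBR3 received 70 ng/ml PDGF-BB during the last 15 minutes.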

[2] = tested on: SKBR3 (PI3Kα-Wild Type) cell line; assay: HTRF phospho-AKT(S473) cell assay in SKBR3 cells; format: cell-based, human; settings: Homo sapiens, SK-BR-3; SKBR3 (PI3Kα-Wild Type) cells, HTRF phospho-AKT(S473), 2 hours compound incubation, PDGF-BB stimulated
Procedure, shortened: as §1

IC50 [1] [µM]	IC50 [2] [µM]	SMILES
< 0.25	1 to 5	Cc1cc([C@@H](C)Nc2ccc(Cl)nc2C(=O)NS(C)(=O)=O)c2nc(N3Cc4cnn(-c5ccc(C#N)cc5)c4C3)n(C)c(=O)c2c1 [Compound 240, (R)-6-chloro-3-((1-(2-(1-(4-cyanophenyl)-4,6-dihydropyrrolo[3,4-c]pyrazol-5(1H)-yl)-3,6-dimethyl-4-oxo-3,4-dihydroquinazolin-8-yl)ethyl)amino)-N-(methylsulfonyl) picolinamide]
< 0.25	1 to 5	Cc1cc([C@@H](C)Nc2ccc(Cl)nc2C(=O)NS(C)(=O)=O)c2nc(-c3ccc(-c4cnn(C)c4)nc3)n(C)c(=O)c2c1 [Compound 241, (R)-6-chloro-3-((1-(3,6-dimethyl-2-(6-(1-methyl-1H-pyrazol-4-yl)pyridin-3-yl)-4-oxo-3,4-dihydroquinazolin-8-yl)ethyl)amino)-N-(methylsulfonyl) picolinamide]
< 0.25	1 to 5	Cc1cc([C@@H](C)Nc2ccc(Cl)nc2C(=O)NS(C)(=O)=O)c2nc(N3CCC(c4ccc(N(C)C)nc4)CC3)n(C)c(=O)c2c1 [Compound 242, (R)-6-chloro-3-((1-(2-(4-(6-(dimethylamino)pyridin-3-yl)piperidin-1-yl)-3,6-dimethyl-4-oxo-3,4-dihydroquinazolin-8-yl)ethyl)amino)-N-(methylsulfonyl) picolinamide]
< 0.25	1 to 5	Cc1cc([C@@H](C)Nc2ccc(Cl)nc2C(=O)NS(C)(=O)=O)c2nc(-c3ccc(-c4ccn(C)n4)nc3)n(C)c(=O)c2c1 [Compound 243, (R)-6-chloro-3-((1-(3,6-dimethyl-2-(6-(1-methyl-1H-pyrazol-3-yl)pyridin-3-yl)-4-oxo-3,4-dihydroquinazolin-8-yl)ethyl)amino)-N-(methylsulfonyl) picolinamide]
< 0.25	1 to 5	Cc1cc([C@@H](C)Nc2ccc(Cl)nc2C(=O)NS(C)(=O)=O)c2nc(-c3ccc(O[C@@H]4CCN(C)CC4(F)F)nc3)n(C)c(=O)c2c1 [Compound 244, 6-chloro-3-(((R)-1-(2-(6-(((R)-3,3-difluoro-1-methylpiperidin-4-yl)oxy)pyridin-3-yl)-3,6-dimethyl-4-oxo-3,4-dihydroquinazolin-8-yl)ethyl)amino)-N-(methylsulfonyl) picolinamide]
< 0.25	1 to 5	Cc1cc([C@@H](C)Nc2ccc(Cl)nc2C(=O)NS(C)(=O)=O)c2nc(N3Cc4cn(-c5cnn(C)c5)nc4C3)n(C)c(=O)c2c1 [Compound 245, (R)-6-chloro-3-((1-(3,6-dimethyl-2-(2-(1-methyl-1H-pyrazol-4-yl)-2,6-dihydropyrrolo[3,4-c]pyrazol-5(4H)-yl)-4-oxo-3,4-dihydroquinazolin-8-yl)ethyl)amino)-N-(methylsulfonyl) picolinamide]
< 0.25	1 to 5	Cc1cc([C@@H](C)Nc2ccc(Cl)nc2C(=O)NS(C)(=O)=O)c2nc(N3Cc4cn(-c5cccnc5C)nc4C3)n(C)c(=O)c2c1 [Compound 246, (R)-6-chloro-3-((1-(3,6-dimethyl-2-(2-(2-methylpyridin-3-yl)-2,6-dihydropyrrolo[3,4-c]pyrazol-5(4H)-yl)-4-oxo-3,4-dihydroquinazolin-8-yl)ethyl)amino)-N-(methylsulfonyl) picolinamide]
< 0.25	1 to 5	Cc1cc([C@@H](C)Nc2ccc(Cl)nc2C(=O)NS(C)(=O)=O)c2nc(N3CCC(c4nn(C)cc4F)CC3)n(C)c(=O)c2c1 [Compound 247, (R)-6-chloro-3-((1-(2-(4-(4-fluoro-1-methyl-1H-pyrazol-3-yl)piperidin-1-yl)-3,6-dimethyl-4-oxo-3,4-dihydroquinazolin-8-yl)ethyl)amino)-N-(methylsulfonyl) picolinamide]
< 0.25	1 to 5	Cc1cc([C@@H](C)Nc2ccc(Cl)nc2C(=O)NS(C)(=O)=O)c2nc(N3CCC(c4nn(C)cc4C)CC3)n(C)c(=O)c2c1 [Compound 248, ®-6-chloro-3-((1-(2-(4-(1,4-dimethyl-1H-pyrazol-3-yl)piperidin-1-yl)-3,6-dimethyl-4-oxo-3,4-dihydroquinazolin-8-yl)ethyl)amino)-N-(methylsulfonyl) picolinamide]
< 0.25	1 to 5	Cc1cc([C@@H](C)Nc2ccc(Cl)nc2C(=O)NS(C)(=O)=O)c2nc(N3CCC(c4ccn(C(C)C)n4)CC3)n(C)c(=O)c2c1 [Compound 249, (R)-6-chloro-3-((1-(2-(4-(1-isopropyl-1H-pyrazol-3-yl)piperidin-1-yl)-3,6-dimethyl-4-oxo-3,4-dihydroquinazolin-8-yl)ethyl)amino)-N-(methylsulfonyl) picolinamide]
< 0.25	1 to 5	Cc1cc([C@@H](C)Nc2ccc(Cl)nc2C(=O)NS(C)(=O)=O)c2nc(N3Cc4cn(-c5ccc(C#N)cc5C)nc4C3)n(C)c(=O)c2c1 [Compound 250, (R)-6-chloro-3-((1-(2-(2-(4-cyano-2-methylphenyl)-2,6-dihydropyrrolo[3,4-c]pyrazol-5(4H)-yl)-3,6-dimethyl-4-oxo-3,4-dihydroquinazolin-8-yl)ethyl)amino)-N-(methylsulfonyl) picolinamide]
< 0.25	1 to 5	Cc1cc([C@@H](C)Nc2ccc(Cl)nc2C(=O)NS(C)(=O)=O)c2nc(-c3ccc(N4CCN(C)CC4)nc3)n(C)c(=O)c2c1 [Compound 251]
< 0.25	1 to 5	Cc1cc([C@@H](C)Nc2ccc(Cl)nc2C(=O)NS(C)(=O)=O)c2nc(N3Cc4cnn(-c5cccnc5C)c4C3)n(C)c(=O)c2c1 [Compound 252, (R)-6-chloro-3-((1-(3,6-dimethyl-2-(1-(2-methylpyridin-3-yl)-4,6-dihydropyrrolo[3,4-c]pyrazol-5(1H)-yl)-4-oxo-3,4-dihydroquinazolin-8-yl)ethyl)amino)-N-(methylsulfonyl) picolinamide]
0.25 to 0.5	1 to 5	Cc1cc([C@@H](C)Nc2ccc(Cl)nc2C(=O)NS(C)(=O)=O)c2nc(N3CCC(c4ncn(C)n4)CC3)n(C)c(=O)c2c1 [Compound 253, (R)-6-chloro-3-((1-(3,6-dimethyl-2-(4-(1-methyl-1H-1,2,4-triazol-3-yl)piperidin-1-yl)-4-oxo-3,4-dihydroquinazolin-8-yl)ethyl)amino)-N-(methylsulfonyl) picolinamide]
< 0.25	1 to 5	CC(=O)Nc1ccc(C2CCN(c3nc4c([C@@H](C)Nc5ccc(Cl)nc5C(=O)NS(C)(=O)=O)cc(C)cc4c(=O)n3C)CC2)cn1 [Compound 254, (R)-3-((1-(2-(4-(6-acetamidopyridin-3-yl)piperidin-1-yl)-3,6-dimethyl-4-oxo-3,4-dihydroquinazolin-8-yl)ethyl)amino)-6-chloro-N-(methylsulfonyl) picolinamide]
< 0.25	1 to 5	Cc1cc([C@@H](C)Nc2ccc(Cl)nc2C(=O)NS(C)(=O)=O)c2nc(N3CCC(n4ncc5cc(C#N)ccc54)CC3)n(C)c(=O)c2c1 [Compound 255, (R)-6-chloro-3-((1-(2-(4-(5-cyano-1H-indazol-1-yl)piperidin-1-yl)-3,6-dimethyl-4-oxo-3,4-dihydroquinazolin-8-yl)ethyl)amino)-N-(methylsulfonyl) picolinamide]
